Results as given in patent US10696639B2, “Heterocyclic compounds as HIV protease inhibitors” (Merck Sharp & Dohme Corp., priority 2016, dated 2020).

Target: T1, wild-type HIV-1 protease (Human immunodeficiency virus type 1 group M subtype B, UniProt P04585)
T1 construct: Escherichia coli expressed wild-type HIV-1 protease protein; made in house; host or cells: Escherichia coli
Assay: Assay for Inhibition of Microbial Expressed HIV Protease
Format: biochemical
Settings: E. coli expressed wild-type HIV-1 protease, peptide substrate cleavage, LC-MS readout; mean of at least two independent experiments; read-out: HIV Pr Enzyme HIV1 PR IC50
Method: Assay for Inhibition of Microbial Expressed HIV Protease
Inhibition of Escherichia coli expressed wild-type HIV-1 protease protein was carried out with a peptide substrate [Val-Ser-Gln-Asn-(βnaphtyl)Ala-Pro-Ile-Val]. The inhibitor compound was preincubated with HIV-1 protease enzyme in assay buffer (50 mM sodium acetate, pH 5.5, 100 mM NaCl, and 0.1% BSA) for 30 minutes at room temperature. Peptide substrate was added to […] in a total volume of 20 μL containing 20 pM HIV-1 protease (final) after which the reaction was incubated for 1 hour at 30° C. The reaction was quenched by the addition of formic acid and HIV protease inhibitor indinavir to 0.012% and 150 nM final concentrations, respectively. Product formation was determined after separation of product and substrate on a ZORBAX Eclipse XDB-C18 column (Aligent Technologies, Santa Clara, Calif., USA) connected to an API 4000™ mass spectrometer (AB Sciex, Pte. Ltd., Concord Ontario, Canada) with multiple reaction monitoring (transitions were 644.5/428.9 and 615.4/422.2 (M1/M3) for product and indinavir respectively). The extent of inhibition of the reaction was determined from the peak area of the products. Analysis of the products, independently synthesized, provided quantitation standards and confirmation of the product composition.

In the case of `COC(=O)N[C@@H](Cc1ccc(OC)cc1)C(=O)N[C@@H](C)CCCN1C(=N)N[C@](CC(C)C)(c2ccccc2)C1=O` [Example 1, N-{(1S)-4-[(4R)-2-imino-4-(2-methylpropyl)-5-oxo-4-phenylimidazolidin-1-yl]-1-methylbutyl}-N-alpha-(methoxycarbonyl)-O-methyl-L-tyrosinamide], the IC50 is reported as 18 nM.
`N=C1NC(c2ccccc2)(c2ccccc2)C(=O)N1CCCCNC(=O)[C@@H](N)Cc1ccccc1` [Example 2, N-[4-(2-imino-5-oxo-4,4-diphenylimidazolidin-1-yl)butyl]-L-phenylalaninamide] was tested, and the IC50 was 11 nM.
In the case of `CC(=O)N[C@@H](Cc1ccccc1)C(=O)NCCCCN1C(=N)NC(c2ccccc2)(c2ccccc2)C1=O` [Example 3, N-alpha-acetyl-N-[4-(2-imino-5-oxo-4,4-diphenylimidazolidin-1-yl)butyl]-L-phenylalaninamide], the IC50 is reported as 8 nM.
`COC(=O)N[C@@H](Cc1ccccc1)C(=O)NCCCCN1C(=N)NC(c2ccccc2)(c2ccccc2)C1=O` [Example 4, N-[4-(2-imino-5-oxo-4,4-diphenylimidazolidin-1-yl)butyl]-N-alpha-(methoxycarbonyl)-L-phenylalaninamide] showed an IC50 of 10 nM.
`N=C1NC(c2ccccc2)(c2ccccc2)C(=O)N1CCCCNC(=O)[C@@H](N)CCc1ccccc1` [Example 5, (2S)-2-amino-N-[4-(2-imino-5-oxo-4,4-diphenylimidazolidin-1-yl)butyl]-4-phenylbutanamide] showed an IC50 of 6 nM.
Work on `CCOC(=O)N[C@@H](Cc1ccccc1)C(=O)NCCCCN1C(=N)NC(c2ccccc2)(c2ccccc2)C1=O` [Example 6, N-alpha-(ethoxycarbonyl)-N-[4-(2-imino-5-oxo-4,4-diphenylimidazolidin-1-yl)butyl]-L-phenylalaninamide] yielded an IC50 of 4 nM.
`COC(=O)N[C@@H](Cc1ccccc1)C(=O)N[C@@H](C)CCCN1C(=N)NC(c2ccccc2)(c2ccccc2)C1=O` [Example 7, N-[(1S)-4-(2-imino-5-oxo-4,4-diphenylimidazolidin-1-yl)-1-methylbutyl]-N-alpha-(methoxycarbonyl)-L-phenylalaninamide] gave an IC50 of 2 nM.
`COC(=O)N[C@@H](Cc1cccnc1)C(=O)NCCCCN1C(=N)NC(c2ccccc2)(c2ccccc2)C1=O` [Example 8, methyl [(1S)-2-{[4-(2-imino-5-oxo-4,4-diphenylimidazolidin-1-yl)butyl]amino}-2-oxo-1-(pyridin-3-ylmethyl)ethyl]carbamate] gave an IC50 of 12 nM.
Compound `N=C1NC(c2ccccc2)(c2ccccc2)C(=O)N1CCCCNC(=O)[C@@H](N)Cc1cccnc1` [Example 9, N-[4-(2-imino-5-oxo-4,4-diphenylimidazolidin-1-yl)butyl]-3-pyridin-3-yl-L-alaninamide] has an IC50 of 31 nM.
`N=C1NC(c2ccccc2)(c2ccccc2)C(=O)N1CCCCNC(=O)[C@@H](N)Cc1ccncc1` [Example 10, N-[4-(2-imino-5-oxo-4,4-diphenylimidazolidin-1-yl)butyl]-3-pyridin-4-yl-L-alaninamide] showed an IC50 of 34 nM.
Work on `COC(=O)N[C@@H](Cc1ccccc1)C(=O)N[C@@H](C)CCCN1C(=N)NC(c2ccc(F)cc2)(c2ccc(F)cc2)C1=O` [Example 11, N-{(1S)-4-[4,4-bis(4-fluorophenyl)-2-imino-5-oxoimidazolidin-1-yl]-1-methylbutyl}-N-alpha-(methoxycarbonyl)-L-phenylalaninamide] yielded an IC50 of 7 nM.
`COC(=O)N[C@@H](Cc1ccccn1)C(=O)NCCCCN1C(=N)NC(c2ccccc2)(c2ccccc2)C1=O` [Example 12, methyl [(1S)-2-{[4-(2-imino-5-oxo-4,4-diphenylimidazolidin-1-yl)butyl]amino}-2-oxo-1-(pyridin-2-ylmethyl)ethyl]carbamate] showed an IC50 of 21 nM.
`COC(=O)N[C@@H](Cc1ccncc1)C(=O)NCCCCN1C(=N)NC(c2ccccc2)(c2ccccc2)C1=O` [Example 13, methyl [(1S)-2-{[4-(2-imino-5-oxo-4,4-diphenylimidazolidin-1-yl)butyl]amino}-2-oxo-1-(pyridin-4-ylmethyl)ethyl]carbamate] gave an IC50 of 7 nM.
Work on `N=C1NC(c2ccccc2)(c2ccccc2)C(=O)N1CCCCCNC(=O)[C@@H](N)Cc1ccccc1` [Example 14, N-[5-(2-imino-5-oxo-4,4-diphenylimidazolidin-1-yl)pentyl]-L-phenylalaninamide] yielded an IC50 of 67 nM.
With `COC(=O)N[C@@H](Cc1ccccc1)C(=O)NCCCCCN1C(=N)NC(c2ccccc2)(c2ccccc2)C1=O` [Example 15, N-[5-(2-imino-5-oxo-4,4-diphenylimidazolidin-1-yl)pentyl]-N-alpha-(methoxycarbonyl)-L-phenylalaninamide] the IC50 was 98 nM.
`CC(C)CC1(c2ccccc2)NC(=N)N(CCCCNC(=O)[C@@H](N)Cc2ccccc2)C1=O` (stereo partly drawn) [Example 16, N-{4-[2-imino-4-(2-methylpropyl)-5-oxo-4-phenylimidazolidin-1-yl]butyl}-L-phenylalaninamide] was tested, and the IC50 was 19 nM.
`COC(=O)N[C@@H](Cc1ccccc1)C(=O)NCCCCN1C(=N)NC(CC(C)C)(c2ccccc2)C1=O` (stereo partly drawn) [Example 17, N-{4-[2-imino-4-(2-methylpropyl)-5-oxo-4-phenylimidazolidin-1-yl]butyl}-N-alpha-(methoxycarbonyl)-L-phenylalaninamide] was tested, and the IC50 was 20 nM.
With `CC(C)CCC1(c2ccccc2)NC(=N)N(CCCCNC(=O)[C@@H](N)Cc2ccccc2)C1=O` (stereo partly drawn) [Example 18, N-{4-[2-imino-4-(3-methylbutyl)-5-oxo-4-phenylimidazolidin-1-yl]butyl}-L-phenylalaninamide] the IC50 was 25 nM.
`COC(=O)N[C@@H](Cc1ccccc1)C(=O)NCCCCN1C(=N)NC(CCC(C)C)(c2ccccc2)C1=O` (stereo partly drawn) [Example 19, N-{4-[2-imino-4-(3-methylbutyl)-5-oxo-4-phenylimidazolidin-1-yl]butyl}-N-alpha-(methoxycarbonyl)-L-phenylalaninamide] gave an IC50 of 24 nM.
Compound `COC(=O)N[C@@H](Cc1ccncc1)C(=O)NCCCCCN1C(=N)NC(c2ccccc2)(c2ccccc2)C1=O` [Example 20, methyl [(1S)-2-{[5-(2-imino-5-oxo-4,4-diphenylimidazolidin-1-yl)pentyl]amino}-2-oxo-1-(pyridin-4-ylmethyl)ethyl]carbamate] has an IC50 of 91 nM.
`COC(=O)N[C@@H](Cc1ccncc1)C(=O)NCCCCN1C(=N)NC(CC(C)C)(c2ccccc2)C1=O` (stereo partly drawn) [Example 21, methyl [(1S)-2-({4-[2-imino-4-(2-methylpropyl)-5-oxo-4-phenylimidazolidin-1-yl]butyl}amino)-2-oxo-1-(pyridin-4-ylmethyl)ethyl]carbamate] gave an IC50 of 46 nM.
Compound `COC(=O)N[C@@H](Cc1ccncc1)C(=O)NCCCCN1C(=N)NC(CCC(C)C)(c2ccccc2)C1=O` (stereo partly drawn) [Example 22, methyl [(1S)-2-({4-[2-imino-4-(3-methylbutyl)-5-oxo-4-phenylimidazolidin-1-yl]butyl}amino)-2-oxo-1-(pyridin-4-ylmethyl)ethyl]carbamate] has an IC50 of 60 nM.
`CC1(OC(=O)N[C@@H](Cc2ccccc2)C(=O)NCCCCN2C(=N)NC(c3ccccc3)(c3ccccc3)C2=O)CC1` [Example 23, N-[4-(2-imino-5-oxo-4,4-diphenylimidazolidin-1-yl)butyl]-N-alpha-{[(1-methylcyclopropyl)oxy]carbonyl}-L-phenylalaninamide] showed an IC50 of 16 nM.
`N#Cc1cccc(C[C@H](N)C(=O)NCCCCN2C(=N)NC(c3ccccc3)(c3ccccc3)C2=O)c1` [Example 24, 3-cyano-N-[4-(2-imino-5-oxo-4,4-diphenylimidazolidin-1-yl)butyl]-L-phenylalaninamide] was tested, and the IC50 was 22 nM.
`COC(=O)N[C@@H](Cc1ccc(F)cc1)C(=O)NCCCCN1C(=N)NC(c2ccccc2)(c2ccccc2)C1=O` [Example 25, 4-fluoro-N-[4-(2-imino-5-oxo-4,4-diphenylimidazolidin-1-yl)butyl]-N-alpha-(methoxycarbonyl)-L-phenylalaninamide] was tested, and the IC50 was 17 nM.
`CC(C)OC(=O)N[C@@H](Cc1ccccc1)C(=O)NCCCCN1C(=N)NC(c2ccccc2)(c2ccccc2)C1=O` [Example 26, N-[4-(2-imino-5-oxo-4,4-diphenylimidazolidin-1-yl)butyl]-N-alpha-[(1-methylethoxy)carbonyl]-L-phenylalaninamide] gave an IC50 of 27 nM.
`COC(=O)N[C@@H](Cc1ccc(F)cc1)C(=O)N[C@@H](C)CCCN1C(=N)N[C@](CC(C)C)(c2ccccc2)C1=O` [Example 27, 4-fluoro-N-{(1S)-4-[(4R)-2-imino-4-(2-methylpropyl)-5-oxo-4-phenylimidazolidin-1-yl]-1-methylbutyl}-N-alpha-(methoxycarbonyl)-L-phenylalaninamide] showed an IC50 of 27 nM.
For `COC(=O)N[C@@H](Cc1ccccc1)C(=O)N[C@@H](C)CCCN1C(=N)N[C@](CC(C)C)(c2ccccc2)C1=O` [Example 28, N-{(1S)-4-[(4R)-2-imino-4-(2-methylpropyl)-5-oxo-4-phenylimidazolidin-1-yl]-1-methylbutyl}-N-alpha-(methoxycarbonyl)-L-phenylalaninamide], the IC50 was 9 nM.
`COC(=O)N[C@@H](Cc1ccccc1)C(=O)NC(CCCN1C(=N)N[C@](CC(C)C)(c2ccccc2)C1=O)CC1CC1` (stereo partly drawn) [Example 29, N-{1-(cyclopropylmethyl)-4-[(4R)-2-imino-4-(2-methylpropyl)-5-oxo-4-phenylimidazolidin-1-yl]butyl}-N-alpha-(methoxycarbonyl)-L-phenylalaninamide] gave an IC50 of 33 nM.
